Nine molecules from ChEMBL document CHEMBL1201862, “PubChem BioAssay data set” (2004) can be followed below.

What all share (assay): NCI-60 cell line screen, 48 h
In experiment [1] the test system is CAKI-1.
The test system of experiment [2] is DMS-114.
The test system of experiment [3] is EKVX.
For experiment [4], the system named is HCT-116.
Experiment [5] deals with HCT-15.
In experiment [6] the test system is HOP-62.
The subject of experiment [7] is Hs-578T.
Experiment [8] relates to IGROV-1.
Experiment [9] concerns M14.
For experiment [10], the system named is NCI-H226.
The subject of experiment [11] is NCI-H522.
Experiment [12] relates to RPMI-8226.
The subject of experiment [13] is SK-MEL-28.
Experiment [14] relates to SK-MEL-5.
In experiment [15] the test system is SK-OV-3.
In experiment [16] the test system is SN12C.
Experiment [17] relates to SR.
Experiment [18] relates to SW-620.
For experiment [19], the system named is TK-10.
The test system of experiment [20] is UACC-62.

Structures can show the parent of a compound that is named as a salt.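 Five compound concentrations were applied to cells in 96-well plates for 48 hours; endpoints were derived by simple linear interpolation of the resulting dose-response curve. Here, GI50 denotes the concentration required for 50% inhibition of growth.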 Activity calls are given as the source filed them. No stated cut-off is given here; in the data, active = GI50 up to about 1.1 µM and inactive = higher.

Regarding `Oc1ccc(Cn2c(-c3ccc(O)cc3)nc3ccccc32)cc1`, the GI50 in experiment [1] is > 100 µM (inactive); in experiment [2] it was > 100 µM (inactive); in [3], > 100 µM (inactive); in experiment [4], > 100 µM (inactive); in [5], above 100 µM; in [6], > 100 µM (inactive). Besides, the GI50 in experiment [7], in experiment [8], in experiment [9], in experiment [10], in [11] and in [12] was > 100 µM (inactive) in each case. Moreover, the GI50 was > 100 µM (inactive) in experiment [13]; > 100 µM (inactive) in [14]; > 100 µM (inactive) in experiment [15]; > 100 µM (inactive) in experiment [16]; > 31.6 µM (inactive) in [17]; > 100 µM (inactive) in experiment [18]. For the same molecule, the GI50 in [19] and in experiment [20] was > 100 µM (inactive) throughout.

In the case of `Cc1n(CC(C)C)c2c([n+]1C)C(=O)c1ccccc1C2=O`, the GI50 in experiment [1] is 1.17 µM (inactive); in [2], < 0.0161 µM (active); in experiment [3] it was 0.0631 µM (active); in [4], 0.0494 µM (active); in [5], 0.478 µM; in experiment [6], 0.131 µM (active). For the same molecule, the GI50 was 0.565 µM (active) in experiment [7]; 0.0224 µM (active) in experiment [8]; 0.27 µM (active) in [9]; 0.311 µM (active) in experiment [10]; 0.0176 µM (active) in experiment [11]; 0.0628 µM (active) in experiment [12]. In addition, the GI50 was 1.06 µM (active) in experiment [13]; 0.0473 µM (active) in experiment [14]; 0.35 µM (active) in experiment [15]; 0.0255 µM (active) in [16]; 0.301 µM (active) in [17]; 0.0432 µM (active) in [18]. The GI50 in experiment [19] is 0.411 µM (active); in experiment [20], 0.198 µM (active).

On to `O=C(c1ccc(F)cc1)c1cccc(C(=O)c2ccc(F)cc2)n1`, for which the GI50 in experiment [1] was 28 µM (inactive); in experiment [2], 23.9 µM (inactive); in experiment [3], > 100 µM (inactive); in [4] it was 22.9 µM (inactive); in [5], above 100 µM; in experiment [6], 20.1 µM (inactive). Further, the GI50 in experiment [7] was 25.6 µM (inactive); in experiment [8], 24.9 µM (inactive); in experiment [9] it was 62.2 µM (inactive); in experiment [10], > 45.4 µM (inactive); in [11], 20.3 µM (inactive); in [12] it was > 100 µM (inactive). Besides, the GI50 is > 100 µM (inactive) in [13]; 51.8 µM (inactive) in experiment [14]; 1.53 µM (inactive) in experiment [15]; 55.2 µM (inactive) in experiment [16]; > 100 µM (inactive) in experiment [17]; > 83.9 µM (inactive) in experiment [18]. Also, the GI50 in [19] was 39.7 µM (inactive); in experiment [20], 44.2 µM (inactive).

Consider `O=C1C(Br)=CC2(C=C1Br)CCNC1=C2C2=NCCc3c[nH]c(c32)C1=O`, for which the GI50 in experiment [1] was 0.134 µM (active); in [2] it was 0.0401 µM (active); in experiment [3], 0.231 µM (active); in experiment [4], 0.0233 µM (active); in experiment [5], 0.0605 µM; in [6], 2.32 µM (inactive). Besides, the GI50 in experiment [7] is 0.445 µM (active); in experiment [8] it was 0.153 µM (active); in [9], 0.0703 µM (active); in experiment [10], 1.27 µM (inactive); in experiment [11] it was 0.0176 µM (active); in experiment [12] it was 0.0355 µM (active). In addition, the GI50 is 0.163 µM (active) in experiment [13]; 0.126 µM (active) in [14]; 1.9 µM (inactive) in [15]; 0.146 µM (active) in experiment [16]; 0.0431 µM (active) in experiment [17]; 0.0255 µM (active) in [18]. Further, the GI50 in experiment [19] is 0.204 µM (active); in [20], 0.0933 µM (active).

Regarding `CCc1cccc(C)c1NC(=O)CCc1nnc(S)[nH]1`, the GI50 was > 100 µM (inactive) in experiment [1]; > 100 µM (inactive) in [2]; > 100 µM (inactive) in experiment [3]; > 100 µM (inactive) in experiment [4]; above 100 µM in experiment [5]; > 100 µM (inactive) in experiment [6]. In addition, the GI50 in experiment [8], in experiment [9], in [10], in experiment [11], in experiment [12] and in experiment [13] was > 100 µM (inactive) in each case. Further, the GI50 in experiment [14], in experiment [15], in experiment [16], in experiment [17], in [18] and in experiment [19] was > 100 µM (inactive) each time. For the same molecule, the GI50 in experiment [20] was > 100 µM (inactive).

Regarding `Cc1ccc(C(=O)N2CCCCC2)cc1/N=N/N(C)C`, the GI50 was > 100 µM (inactive) in [1]; > 100 µM (inactive) in experiment [2]; > 100 µM (inactive) in [3]; > 100 µM (inactive) in [4]; above 100 µM in experiment [5]; > 100 µM (inactive) in experiment [6]. Also, the GI50 in experiment [8], in experiment [9], in experiment [10], in experiment [11], in experiment [12] and in [13] was > 100 µM (inactive) throughout. Moreover, the GI50 in experiment [14] is > 100 µM (inactive); in experiment [15], > 10 µM (inactive); in [16] it was > 100 µM (inactive); in experiment [17], > 100 µM (inactive); in experiment [18] it was > 100 µM (inactive); in experiment [19], > 100 µM (inactive). Further, the GI50 in experiment [20] was > 100 µM (inactive).

On to `CC(=O)N(C)c1ccc(Nc2cc(C)nc3ccc4nc[nH]c4c23)cc1` [ACODAZOLE HYDROCHLORIDE], for which the GI50 was 5.04 µM (inactive) in experiment [1]; 7.08 µM (inactive) in experiment [2]; 18.7 µM (inactive) in experiment [3]; 4.55 µM (inactive) in experiment [4]; 23 µM in experiment [5]; 6.19 µM (inactive) in experiment [6]. For the same molecule, the GI50 in experiment [7] was 9.14 µM (inactive); in experiment [8] it was 12.4 µM (inactive); in experiment [9], 10.8 µM (inactive); in experiment [10], 6.27 µM (inactive); in [11] it was 7.38 µM (inactive); in experiment [12], 8.07 µM (inactive). Moreover, the GI50 in [13] is 15.1 µM (inactive); in experiment [14], 7.28 µM (inactive); in experiment [15], 10.5 µM (inactive); in experiment [16], 7.21 µM (inactive); in [17], 3.29 µM (inactive); in experiment [18], 4.88 µM (inactive). Also, the GI50 in experiment [19] was 13.6 µM (inactive); in experiment [20], 10.2 µM (inactive).

`COC(=O)C[C@](O)(CCCC(C)(C)O)C(=O)O[C@@H]1C(OC)=C[C@]23CCCN2CCc2cc4c(cc2[C@H]13)OCO4` [OMACETAXINE MEPESUCCINATE]: the GI50 is 0.203 µM (active) in experiment [1]; 0.0047 µM (active) in experiment [2]; 0.133 µM (active) in experiment [3]; 0.217 µM in experiment [5]; 0.0597 µM (active) in experiment [6]; 1.07 µM (active) in [7]. The GI50 in [8] is 0.129 µM (active); in experiment [9], 1.21 µM (inactive); in [10], 0.09 µM (active); in experiment [12] it was 0.0388 µM (active); in experiment [13], 0.111 µM (active); in experiment [14] it was 0.117 µM (active). Further, the GI50 is 0.122 µM (active) in experiment [15]; 0.121 µM (active) in experiment [16]; 0.0327 µM (active) in [17]; 0.0682 µM (active) in [18]; 3.74 µM (inactive) in experiment [19]; 0.113 µM (active) in experiment [20].

On to `OC[C@H]1O[C@@H](n2cnc3c(S)ncnc32)[C@H](O)[C@@H]1O` [THIOINOSINE], for which the GI50 in experiment [1] was > 2500 µM (inactive); in experiment [2] it was 1830 µM (inactive); in experiment [3], > 2500 µM (inactive); in [4], 2390 µM (inactive); in experiment [5] it was above 2500 µM; in experiment [6], 2120 µM (inactive). In addition, the GI50 in [7] is > 2440 µM (inactive); in experiment [8] it was > 2180 µM (inactive); in experiment [9] it was 2360 µM (inactive); in experiment [10], > 2500 µM (inactive); in experiment [11], 2160 µM (inactive); in [12], 1400 µM (inactive). Besides, the GI50 in experiment [13] is > 2500 µM (inactive); in experiment [14], > 2500 µM (inactive); in experiment [15], 603 µM (inactive); in [16] it was > 2500 µM (inactive); in experiment [17], 1890 µM (inactive); in experiment [18], > 2500 µM (inactive). Also, the GI50 in [19] is > 2500 µM (inactive); in experiment [20], 1250 µM (inactive).
